Assay results published in US10968203B2, “Pyrimidinyl-pyridyloxy-naphthyl compounds and methods of treating IRE1-related diseases and disorders” (Genentech, Inc., priority 2017, dated 2021).
Counter-ions that a name gives are not always drawn. Like-named read-outs stand apart in the source and are kept apart here.

Test system: XBP1s-luc 293 LUC
Assay: cellular PD assay, XBP1s-LUC reporter (Example 903)
Format: cell-based
Details: Table 2, read-out: XBP1s-luc 293 LUC (IC50)
Protocol: Inhibition of IRE1α RNase activity was determined in an enzyme assay that measured cleavage of the XBP1 stem loop by autophosphorylated IRE1α. This assay format was chosen to ensure that inhibitors of either the IRE1α kinase or the RNase domains would be identified. Binding to the ATP pocket and inhibition of IRE1α kinase activity are not necessarily required to inhibit the RNase activity. Compounds were also profiled in cellular assays by direct measurement of XBP s (B-DNA assay) or by quantification of the luciferase signal in HT1080 XBP1-Luc, which carries a luciferase fusion that is only in frame and expressed from the spliced XBP1 transcript.
Biological activity of Formula I or I′ compounds was measured by an IRE1 biochemical binding assay (Example 901), a biochemical RNase assay (Example 902), a cellular PD assay, XBP1s-LUC reporter (Example 903), and an IRE1α-based inhibition of multiple myeloma (MM) cell proliferation assay.
All of the exemplary Formula I or I′ compounds in Tables 1 and 2 were made and characterized by LCMS [M+H]^+ (liquid chromatography mass spectroscopy) with detection of parent ion. All of the exemplary Formula I compounds in Tables 1 and 2 were prepared according to the procedures of the Schemes, General Procedures, and Examples. All of the exemplary Formula I or I′ compounds in Tables 1 and 2 were tested for binding to IRE1 (inositol requiring enzyme 1 alpha) and biological activity according to the assays and protocols of Example 901-903. Exemplary Formula I or I′ compounds in Tables 1 and 2 have the following structures, corresponding IUPAC names (ChemBioDraw, Version 12.0.2, CambridgeSoft Corp., Cambridge Mass.), and biological activity. Where more than one name is associated with a Formula I or I′ compound or intermediate in Tables 1 and 2 and the Experimental Procedures, the chemical structure shall define the compound. Assignment of configuration at chiral centers in separated stereoisomers may be tentative, and depicted in Tables 1 and 2 structures for illustrative purposes, before stereochemistry is definitively established, such as from x-ray crystallographic data. In some cases, stereoisomers are separated and tested for biological activity before the stereochemistry of the separated stereoisomers is determined; and stereochemistry in some instances was inferred based on structure-activity relationship (SAR) knowledge from previous compounds. In some cases, the compounds are tested as racemic or diastereomeric mixtures. Where more than one potency value is entered on a row, separated stereoisomers represented by the structure and name on that row were tested. Exemplary compounds of Formula I or I′ in Table 3 can be prepared using methods known in the art or according to procedures similar to those described in the Schemes, General Procedures, and Examples 101-500. Biological activities of compounds in Table 3 can be tested in biological assays, for example, those in Examples 901, 902 and 903 described herein.

Compound | IC50 [nM] | IC50 (hydrochloride) [nM]
CO[C@@H](C)CS(=O)(=O)Nc1c(F)ccc2c(Oc3ncccc3-c3ccnc(N[C@H]4CCCNC4)n3)c(C)ccc12 (single isomer, unassigned) [Example 393, hydrochloride] | 76 | –
CO[C@H](C)CS(=O)(=O)Nc1c(F)ccc2c(Oc3ncccc3-c3ccnc(N[C@H]4CCCNC4)n3)c(C)ccc12 (single isomer, unassigned) [Example 394, hydrochloride] | 28 | –
Cc1ccc2c(N[C@@H]3CCC[C@H]3O)cccc2c1Oc1ncccc1-c1ccnc(N[C@H]2CCCNC2)n1 (single isomer, unassigned) [Example 395, hydrochloride] | 109 | –
Cc1ccc2c(N[C@H]3CCC[C@@H]3O)cccc2c1Oc1ncccc1-c1ccnc(N[C@H]2CCCNC2)n1 (single isomer, unassigned) [Example 396, hydrochloride] | 270 | –
Cc1ccc2c(N3CCC(O)C3)cccc2c1Oc1ncccc1-c1ccnc(N[C@H]2CCCNC2)n1 (single isomer, unassigned) [Example 408] | 470 | –
Cc1ccc2c(NC[C@@H](C)C#N)cccc2c1Oc1ncccc1-c1ccnc(N[C@H]2CCCNC2)n1 (single isomer, unassigned) [Example 414, hydrochloride] | 59 | –
Cc1ccc2c(NC[C@H](C)C#N)cccc2c1Oc1ncccc1-c1ccnc(N[C@H]2CCCNC2)n1 (single isomer, unassigned) [Example 415, hydrochloride] | 269 | –
Cc1ccc2c(NS(=O)(=O)C[C@@H]3CCCO3)c(F)ccc2c1Oc1ncccc1-c1ccnc(N[C@H]2CCCNC2)n1 (single isomer, unassigned) [Example 416, hydrochloride] | 105 | –
Cc1ccc2c(NS(=O)(=O)C[C@H]3CCCO3)c(F)ccc2c1Oc1ncccc1-c1ccnc(N[C@H]2CCCNC2)n1 (single isomer, unassigned) [Example 417, hydrochloride] | 74 | –
Cc1ccc2c(NS(=O)(=O)Cc3ccccc3)c(F)ccc2c1Oc1ncccc1-c1ccnc(N[C@@H]2CNC[C@@H](F)C2)n1 (single isomer, unassigned) [Example 418, hydrochloride] | 2 | –
Cc1ccc2c(NCC(C#N)C(C)C)cccc2c1Oc1ncccc1-c1ccnc(N[C@H]2CCCNC2)n1 (single isomer, unassigned) [Example 422] | 83 | –
Cc1ccc2c(NS(=O)(=O)CCC(F)(F)F)c(F)ccc2c1Oc1ncccc1-c1ccnc(N[C@@H]2CNC[C@@H](F)C2)n1 (single isomer, unassigned) [Example 432, hydrochloride] | 28 | –
Cc1ccc2c(NC(=O)CC(O)C(F)(F)F)cccc2c1Oc1ncccc1-c1ccnc(N[C@H]2CCCNC2)n1 (single isomer, unassigned) [Example 435] | 338 | –
Cc1ccc2c(NC(=O)C[C@@H](O)C(F)(F)F)cccc2c1Oc1ncccc1-c1ccnc(N[C@H]2CCCNC2)n1 (single isomer, unassigned) [Example 436] | 75 | –
Cc1ccc2c(NS(=O)(=O)CC(F)(F)F)c(F)ccc2c1Oc1ncccc1-c1ccnc(N[C@@H]2CNC[C@@H](F)C2)n1 (single isomer, unassigned) [Example 444, hydrochloride] | 19 | –
Cc1ccc2c(N[C@@H]3CCCC[C@H]3O)cccc2c1Oc1ncccc1-c1ccnc(N[C@H]2CCCNC2)n1 (single isomer, unassigned) [Example 446, hydrochloride] | 67 | –
Cc1ccc2c(N[C@H]3CCCC[C@@H]3O)cccc2c1Oc1ncccc1-c1ccnc(N[C@H]2CCCNC2)n1 (single isomer, unassigned) [Example 447, hydrochloride] | 146 | –
Cc1ccc2c(NS(=O)(=O)CC(C)C(F)(F)F)c(F)ccc2c1Oc1ncccc1-c1ccnc(N[C@H]2CCCNC2)n1 (single isomer, unassigned) [Example 454, hydrochloride] | 24 | –
Cc1ccc2c(NS(=O)(=O)CC(C)C(F)(F)F)c(F)ccc2c1Oc1ncccc1-c1ccnc(N[C@H]2CCCNC2)n1 (single isomer, unassigned) [Example 455, hydrochloride] | – | 18

Compound | IC50 [nM] | IC50 (hydrochloride) [nM]
Cc1ccc2c(NC[C@H](O)C(C)C)cccc2c1Oc1ncccc1-c1ccnc(N[C@H]2CCCNC2)n1 (single isomer, unassigned) [Example 461, hydrochloride] | 42 | –
Cc1ccc2c(NCC(O)C(C)C)cccc2c1Oc1ncccc1-c1ccnc(N[C@H]2CCCNC2)n1 (single isomer, unassigned) [Example 462, hydrochloride] | 110 | –
Cc1ccc2c(NS(=O)(=O)Cc3ccccc3F)c(F)ccc2c1Oc1ncccc1-c1ccnc(N[C@H]2CNC[C@H](F)C2)n1 (single isomer, unassigned) [Example 463, hydrochloride] | 268 | –
Cc1ccc2c(NS(=O)(=O)Cc3ccccc3F)c(F)ccc2c1Oc1ncccc1-c1ccnc(N[C@@H]2CNC[C@@H](F)C2)n1 (single isomer, unassigned) [Example 464, hydrochloride] | 4 | –
Cc1cc(CS(=O)(=O)Nc2c(F)ccc3c(Oc4ncccc4-c4ccnc(N[C@@H]5CNC[C@@H](F)C5)n4)c(C)ccc23)no1 (single isomer, unassigned) [Example 468, hydrochloride] | 10 | –
Cc1ccc2c(NC[C@H](O)C(F)(F)F)cccc2c1Oc1ncccc1-c1ccnc(N[C@@H]2CNC[C@@H](F)C2)n1 (single isomer, unassigned) [Example 469, hydrochloride] | 5 | –
Cc1ccc2c(NS(=O)(=O)C[C@@H]3CCC3(F)F)c(F)ccc2c1Oc1ncccc1-c1ccnc(N[C@H]2CCCNC2)n1 (single isomer, unassigned) [Example 470, hydrochloride] | 24 | –
Cc1ccc2c(NS(=O)(=O)C[C@H]3CCC3(F)F)c(F)ccc2c1Oc1ncccc1-c1ccnc(N[C@H]2CCCNC2)n1 (single isomer, unassigned) [Example 471, hydrochloride] | 17 | –
Cc1ccc2c(NS(=O)(=O)C[C@@H]3CC34CC4)c(F)ccc2c1Oc1ncccc1-c1ccnc(N[C@H]2CCCNC2)n1 (single isomer, unassigned) [Example 473, hydrochloride] | 76 | –
Cc1ccc2c(NS(=O)(=O)C[C@H]3CC34CC4)c(F)ccc2c1Oc1ncccc1-c1ccnc(N[C@H]2CCCNC2)n1 (single isomer, unassigned) [Example 474, hydrochloride] | 52 | –
Cc1ccc2c(NC[C@H](O)C(F)F)cccc2c1Oc1ncccc1-c1ccnc(N[C@H]2CCCNC2)n1 (single isomer, unassigned) [Example 475, hydrochloride] | 19 | –
Cc1ccc2c(NC[C@@H](O)C(F)F)cccc2c1Oc1ncccc1-c1ccnc(N[C@H]2CCCNC2)n1 (single isomer, unassigned) [Example 476, hydrochloride] | 129 | –
Cc1ccc2c(NS(=O)(=O)Cc3ccc(C#N)cc3)c(F)ccc2c1Oc1ncccc1-c1ccnc(N[C@@H]2CNC[C@@H](F)C2)n1 (single isomer, unassigned) [Example 484, hydrochloride] | 5 | –
Cc1ccc2c(NC[C@@H](O)C3CC3)cccc2c1Oc1ncccc1-c1ccnc(N[C@H]2CCCNC2)n1 (single isomer, unassigned) [Example 488, hydrochloride] | 30 | –
Cc1ccc2c(NC[C@H](O)C3CC3)cccc2c1Oc1ncccc1-c1ccnc(N[C@H]2CCCNC2)n1 (single isomer, unassigned) [Example 489, hydrochloride] | 132 | –
Cc1nc(CS(=O)(=O)Nc2c(F)ccc3c(Oc4ncccc4-c4ccnc(N[C@@H]5CNC[C@@H](F)C5)n4)c(C)ccc23)cs1 (single isomer, unassigned) [Example 490, hydrochloride] | 4 | –
Cc1nc(CS(=O)(=O)Nc2c(F)ccc3c(Oc4ncccc4-c4ccnc(N[C@H]5CNC[C@H](F)C5)n4)c(C)ccc23)cs1 (single isomer, unassigned) [Example 491, hydrochloride] | 117 | –
CO[C@@H](CNc1cccc2c(Oc3ncccc3-c3ccnc(N[C@@H]4CNC[C@@H](F)C4)n3)c(C)ccc12)C(F)(F)F (single isomer, unassigned) [Example 493, hydrochloride] | 21 | –
CCC(F)(F)CS(=O)(=O)Nc1c(F)ccc2c(Oc3ncccc3-c3ccnc(N[C@H]4CNC[C@H](F)C4)n3)c(C)ccc12 (single isomer, unassigned) [Example 495, hydrochloride] | 469 | –
